This note sets out measurements from patent US20250221953A1 (The University of Chicago, priority 2022, published 2025).

Counter-ions that a name gives are not always drawn. Like-named read-outs stand apart in the source and are kept apart here.

In the test the test system is Jurkat T cells. The class given is cell-based, human. The following applies: IL-2 production level in treated group compared to control group, 48 hours treatment, then anti-CD3/anti-CD28 12 hours. An excerpt: Two preliminary screens were designed and performed.
To construct “blood chemical compound library for cell-based screening purposes, components such as antibodies that are difficult to distinguish due to a wide variety, and some supplements that only function at a whole organism level including fish oils and herbs were excluded. Physiological ranges of serum levels of individual blood chemicals are available in the human metabolome database (https://hmdb.ca/) and applied in the experimental design. For first screen 1a, Jurkat T cells were treated with blood chemical library for 48 hours and then activated with 2.5 μg/mL anti-CD3 and 0.5 μg/mL anti-CD28 antibodies for another 12 hours, followed by measurement of IL-2 level in medium supernatant using ELISA kit (Biolegend). For first screen 1b, 1×10^5 PD-1^+ Jurkat T cells were co-cultured with 2×10^4 H596 (PD-L1^+) cells in a well of 96-well plate for 60 hours, and then activated with 2.5 μg/mL anti-CD3 and 0.5 μg/mL anti-CD28 antibodies for another 12 hours, followed by measurement of IL-2 level in medium supernatant using ELISA kit. Please also refer to Resources Table and Table 1-2 for more details.

`OCC(O)CO` [GLYCEROL MOLECULAR BIOLOGY REAGENT, GLYCEROL]: the “Relative changed percentage (%)” value was 39.3621%.

`CCCCCCCC/C=C\CCCCCCCC(=O)O` [Oleic acid]: the “Relative changed percentage (%)” value turned out to be 77.53%. Consider `Oc1ccccc1` [PHENOL], for which the “Relative changed percentage (%)” value is listed as 26.79%. As to `Cl.N[C@@H](Cc1c[nH]cn1)C(=O)O` [L-Histidine hydrochloride], the “Relative changed percentage (%)” value is reported as 3.531%. On the same count and under the same terms, the figure for `N[C@@H](CC(=O)[O-])C(=O)[O-].[Mg+2]` [Magnesium Aspartate] is −4.156%; for `CC(=O)O[C@H]1CC[C@@]2(C)C(=CC[C@H]3[C@@H]4CC[C@H](C(C)=O)[C@@]4(C)CC[C@@H]32)C1` [Pregnenolone Acetate] it is 82.91%. On the same count and under the same terms, the figure for `Nc1cc[nH]c(=O)n1` [CYTOSINE] is 74.6228%. Same read-out and setting: for `O=C(O)CC(O)C(=O)O` (centres unmarked) [Malic acid] the value was 38.52%. As to `O=C(O)[C@@H]1C[C@@H](O)CN1` [trans-4-Hydroxy-L-proline], the “Relative changed percentage (%)” value is on record as 5.281%. On to `Cl.NCCc1c[nH]c2ccc(O)cc12` [-HYDROXYTRYPTAMINE HYDROCHLORIDE], for which the “Relative changed percentage (%)” value was −22.39%. On the same count and under the same terms, the figure for `C[C@]12CCC(=O)C[C@@H]1CC[C@@H]1[C@@H]2CC[C@]2(C)[C@@H](O)CC[C@@H]12` [5ALPHA-DIHYDROTESTOSTERONE (DIIT)/DIIT, 5ALPHA-DIHYDROTESTOSTERONE] is −3.457%; for `CSCC[C@H](N)C(=O)O` [L-Methionine] it is −11.84%; for `O=C(/C=C/c1ccc(O)c(O)c1)OCCc1ccccc1` [Caffeic acid phenethyl ester] it is 43.85%.

For `CC1=CCCC(C)(C)C1/C=C/C(C)=C/C=C/C(C)=C/C=C/C=C(C)/C=C/C=C(C)/C=C/C1=C(C)CCCC1(C)C` (centres unmarked) [A-CAROTENE], the “Relative changed percentage (%)” value amounted to 6.561%. The same measure, in the same setting: the figure for Bilirubin Mixed Isomers is −37.62%; for Copper Gluconate it is 4.0672%. Turning to `N[C@@H](Cc1cc(I)c(Oc2cc(I)c(O)c(I)c2)c(I)c1)C(=O)O` [L-THYROXINE], the “Relative changed percentage (%)” value is 18.7243%. On to `CC(=O)[C@@]1(O)CC[C@H]2[C@@H]3CCC4=CC(=O)CC[C@]4(C)[C@H]3CC[C@@]21C` [17A-HYDROXYPROGESTERONE], for which the “Relative changed percentage (%)” value is on record as 41.36%. The same measure, in the same setting: the figure for `O=C(O)CCCC[C@@H]1SC[C@@H]2NC(=O)N[C@@H]21` [BIOTIN, POWDER,, BIOTIN] is 36.45%; for `O=C([O-])[C@@H](O)[C@@H](O)[C@H](O)[C@@H](O)C(=O)[O-].[Ca+2]` [Calcium d-glucarate] it is −12.14%. Consider `Cl.N[C@H]1C(O)O[C@H](CO)[C@@H](O)[C@@H]1O` (stereo partly drawn) [D-(+)-Glucosamine Hydrochloride], for which the “Relative changed percentage (%)” value (Hydrochloride) is −38.23%. Regarding `N[C@H]1C(O)O[C@H](CO)[C@@H](O)[C@@H]1OS(=O)(=O)O` (stereo partly drawn) [D-glucosamine 3-sulfate], the “Relative changed percentage (%)” value is recorded as 9.801%.

With `Cc1ncc(CO)c(C=O)c1O.Cl` [Pyridoxal Hydrochloride], the “Relative changed percentage (%)” value turned out to be 7.787%. With `O=C(O)CCCCC1CCSS1` (stereo not drawn) [alpha-lipoic acid], the “Relative changed percentage (%)” value was determined as 54.62%. Same read-out and setting: for `COc1c(O)c(C)c(C/C=C(\C)CC/C=C(\C)CC/C=C(\C)CC/C=C(\C)CC/C=C(\C)CC/C=C(\C)CC/C=C(\C)CC/C=C(\C)CC/C=C(\C)CCC=C(C)C)c(O)c1OC` [Ubiquinol] the value was 2.165%. With `O=P([O-])(O)O.[K+]` [Monopotassium Phosphate], the “Relative changed percentage (%)” value came out at 28.67%. Turning to `O=[Se](O)O` [sodium selenite], the “Relative changed percentage (%)” value turned out to be 13.27%. Turning to `CC[C@H](C)[C@@H]1NC(=O)[C@H](Cc2ccc(O)cc2)NC(=O)[C@@H](N)CSSC[C@@H](C(=O)N2CCC[C@H]2C(=O)N[C@@H](CC(C)C)C(=O)NCC(N)=O)NC(=O)[C@H](CC(N)=O)NC(=O)[C@H](CCC(N)=O)NC1=O` [OXYTOCIN], the “Relative changed percentage (%)” value was −6.991%. Still for that read-out and setting: the figure for `C[C@@H]1O[C@@H](OC[C@H]2O[C@@H](Oc3c(-c4ccc(O)c(O)c4)oc4cc(O)cc(O)c4c3=O)[C@H](O)[C@@H](O)[C@@H]2O)[C@H](O)[C@H](O)[C@H]1O` [Rutoside trihydrate] is 14.9881%; for `O=C([O-])CC(O)(CC(=O)[O-])C(=O)[O-].[K+].[K+].[K+]` [Potassium Citrate] it is 58.7511%. As to `O=C([O-])[O-].[Ca+2]` [Calcium Carbonate], the “Relative changed percentage (%)” value was −8.75%.

With `CC/C=C\C/C=C\C/C=C\C/C=C\C/C=C\C/C=C\CCC(=O)O` [Docosahexaenoic Acid], the “Relative changed percentage (%)” value is given as −29.89%. CHONDROITIN SULFATE, A SODIUM SALT: the “Relative changed percentage (%)” value is 9.195%. With GLYCOGEN, the “Relative changed percentage (%)” value is listed as 13.75%. Regarding Collagen type II, the “Relative changed percentage (%)” value is 8.555%.

Take `O=C([O-])CC(O)(CC(=O)[O-])C(=O)[O-].O=C([O-])CC(O)(CC(=O)[O-])C(=O)[O-].[Ca+2].[Ca+2].[Ca+2]` [Calcium citrate]: the “Relative changed percentage (%)” value is recorded as −14.58%. Same read-out and setting: for `N[C@@H](CC(=O)[O-])C(=O)[O-].[K+].[K+]` [L-Aspartic acid potassium salt] the value was 4.421%. Take Hyaluronic acid sodium salt: the “Relative changed percentage (%)” value is −9.738% (listed as HYALURONIC ACID SODIUM SALT, sodium salt) and 3.093% (sodium salt). Take Magnesium citrate: the “Relative changed percentage (%)” value came to 3.782%.

As to `CC/C=C\C/C=C\C/C=C\C/C=C\C/C=C\CCCCCC(=O)O` [Docosapentaenoic acid], the “Relative changed percentage (%)” value is listed as −19.39%. Same read-out and setting: for 2-DEOXY-L-RIBOSE/Deoxycytidine the value was 36.7%; for `C[N+](C)(C)[C@@H](Cc1c[nH]c(=S)[nH]1)C(=O)[O-]` [L-(+)-ERGOTHIONEINE INNER SALT], −10.39%. On the same count and under the same terms, for Eicosatrienoic Acid the value was 15.36%. Turning to D-(+)-MALTOSE MONOHYDRATE, the “Relative changed percentage (%)” value is reported as −4.914%. On the same count and under the same terms, the figure for `C[C@]12CC[C@@H]3c4ccc(O)cc4CC[C@H]3[C@@H]1C[C@@H](O)[C@@H]2O` [ESTRIOL] is 2.789%; for Iron Gluconate it is 3.271%. For the compound `C[C@]12CCC(=O)C=C1CC[C@@H]1[C@@H]2CC[C@]2(C)C(=O)CC[C@@H]12` [ANDROSTENEDIONE], the “Relative changed percentage (%)” value was found to be 25.93%. On the same count and under the same terms, the figure for ZINC SULFATE HEPTAHYDRATE is 1.046%.

As for `O=C(CO)[C@@H](O)[C@H](O)[C@H](O)CO` [D(−)FRUCTOSE], the “Relative changed percentage (%)” value was −25.52%. On to `C[C@H](O)C(=O)[O-].[Na+]` [L(+)LACTIC ACID SODIUM], for which the “Relative changed percentage (%)” value was 5.082%. Turning to `COc1cc(CNC(=O)CCCC/C=C/C(C)C)ccc1O` [Capsaicin], the “Relative changed percentage (%)” value is listed as 1.661%. The same measure, in the same setting: for `Cc1ncc(CO)c(CO)c1O` [PYRIDOXINE] the value was 11.1111%; for `O[C@H]1[C@H](O)[C@@H](O)[C@H](O)[C@@H](O)[C@H]1O` [MYO-INOSITOL], 40.7157%. Turning to `CCCC/C=C\CCCCCCCC(=O)O` [Myristoleic acid], the “Relative changed percentage (%)” value is −21.38%. Take `CC1=C(C/C=C(\C)CCC[C@H](C)CCC[C@H](C)CCCC(C)C)C(=O)c2ccccc2C1=O` [VITAMIN K1]: the “Relative changed percentage (%)” value worked out at 10.13%. Same read-out and setting: the figure for `c1ncc2[nH]cnc2n1` [PURINE] is 63.4263%.

On to `NC(N)=O` [UREA], for which the “Relative changed percentage (%)” value is reported as −0.3112%.

For the compound `N=C(N)NCCC[C@H](N)C(=O)O` [L-Arginine], the “Relative changed percentage (%)” value is 10.75%. On the same count and under the same terms, the figure for `C[N+](C)(C)CC(=O)[O-]` [Trimethylglycine] is 9.459%; for `Cn1cnc2c1c(=O)[nH]c(=O)n2C` [THEOBROMINE] it is 25.42%. Same read-out and setting: for `[Cl][Hg][Cl]` [MERCURY(II) CHLORIDE] the value was −2.995%; for `O=C(O)CCCC[C@@H]1SC[C@@H]2NC(=O)N[C@@H]21` [d-Biotin], 29.84%; for ALPHA 1 ANTITRYPSIN, HUMAN PLASMA, −10.6%. On to `O=C(O)CCCCC1CCSS1` (racemic) [DL-6,8-Thioctic Acid], for which the “Relative changed percentage (%)” value was −4.135%. On the same count and under the same terms, the figure for `O=C(O)C(=O)O` [OXALIC ACID SODIUM SALT] is −16.88%. The same measure, in the same setting: the figure for L-A-PHOSPHATIDYLCHOLINE TYPE XVI-E is 38.1%; for `COc1nc(N)nc2nc[nH]c12` [O-METHYLGUANINE] it is 6.274%.
